This is an account of results in ChEMBL document CHEMBL3525990, “Organic anion transporter 3 interacts selectively with lipophilic β-lactam antibiotics” (Drug Metab Dispos, 2013).

What all share (format): ADME, cell-based
Data set [1] concerns the target T1, Organic anion transporter 3 (Mus musculus, UniProt O88909).
T1 sequence (O88909 whole entry): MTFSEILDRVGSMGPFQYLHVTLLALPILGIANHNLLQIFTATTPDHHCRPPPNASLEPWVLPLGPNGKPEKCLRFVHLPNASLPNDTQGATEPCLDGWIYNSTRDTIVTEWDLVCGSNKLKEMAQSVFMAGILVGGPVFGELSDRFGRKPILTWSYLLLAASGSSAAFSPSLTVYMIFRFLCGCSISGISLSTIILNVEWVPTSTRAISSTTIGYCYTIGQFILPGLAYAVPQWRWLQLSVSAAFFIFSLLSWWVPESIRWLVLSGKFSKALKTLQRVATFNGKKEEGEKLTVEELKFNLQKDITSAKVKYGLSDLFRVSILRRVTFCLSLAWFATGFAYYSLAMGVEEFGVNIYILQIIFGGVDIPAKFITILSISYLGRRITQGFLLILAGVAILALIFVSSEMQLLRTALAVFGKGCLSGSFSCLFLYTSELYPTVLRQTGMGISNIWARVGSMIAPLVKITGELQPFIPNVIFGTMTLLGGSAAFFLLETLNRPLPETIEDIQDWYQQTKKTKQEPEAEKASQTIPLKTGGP
Nature of the data set: Inhibition of mouse OAT3 expressed in CHO cells assessed as inhibition of fluorescein uptake at 1 mM over 20 mins relative to untreated-control. Particulars: 1000 µM; call rule not given here.

Data set [2] concerns the target T1, Organic anion transporter 3. Nature of the data set: Inhibition of mouse OAT3 expressed in CHO cells assessed as inhibition of fluorescein uptake at 500 uM over 20 mins relative to untreated-control.
Data set [3] concerns the target T2, OAT3 (Homo sapiens, UniProt Q8TCC7).
T2 sequence (Q8TCC7 whole entry): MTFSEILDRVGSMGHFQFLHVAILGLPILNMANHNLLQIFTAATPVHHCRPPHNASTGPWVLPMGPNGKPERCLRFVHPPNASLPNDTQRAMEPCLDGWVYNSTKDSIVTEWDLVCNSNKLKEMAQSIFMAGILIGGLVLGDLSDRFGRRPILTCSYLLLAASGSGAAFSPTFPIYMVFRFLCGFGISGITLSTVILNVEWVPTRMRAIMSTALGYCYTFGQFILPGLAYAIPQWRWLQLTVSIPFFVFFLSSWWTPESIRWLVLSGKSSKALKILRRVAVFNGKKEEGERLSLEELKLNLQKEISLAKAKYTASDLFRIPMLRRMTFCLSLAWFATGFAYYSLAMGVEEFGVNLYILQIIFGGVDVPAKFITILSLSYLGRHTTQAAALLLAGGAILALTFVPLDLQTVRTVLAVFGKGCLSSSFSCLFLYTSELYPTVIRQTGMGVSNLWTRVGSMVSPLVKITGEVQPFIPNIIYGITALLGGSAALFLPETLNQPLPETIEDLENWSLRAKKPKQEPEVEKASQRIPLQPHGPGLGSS
Nature of the data set: (§1) Inhibition of human OAT3 expressed in CHO cells assessed as inhibition of fluorescein uptake at 500 uM over 20 mins relative to untreated-control. Particulars: CHO cells expressing human OAT3, probe fluorescein.

Data set [4] concerns the target T3, Organic anion transporter 3 (Homo sapiens, UniProt Q8TCC7).
T3 sequence (Q8TCC7 whole entry): T2 sequence (Q8TCC7 whole entry)
Nature of the data set: Inhibition of human OAT3 expressed in CHO cells assessed as inhibition of fluorescein uptake at 1 mM over 20 mins relative to untreated-control. Particulars: 1000 µM.

Data set [5] addresses T1, Organic anion transporter 3. Nature of the data set: Inhibition of mouse OAT3 expressed in CHO cells assessed as inhibition of fluorescein uptake over 20 mins by Michaelis-Menten method.
Data set [6] addresses T3, Organic anion transporter 3. Nature of the data set: Inhibition of human OAT3 expressed in CHO cells assessed as inhibition of fluorescein uptake over 20 mins by Michaelis-Menten method.
Data set [7] has as its target T1, Organic anion transporter 3. Nature of the data set: Inhibition of mouse OAT3 expressed in CHO cells assessed as inhibition of fluorescein uptake at 1 mM after 10 mins. Particulars: 1000 µM.
For data set [8] the target is unchanged. Nature of the data set: Inhibition of mouse OAT3 expressed in CHO cells assessed as inhibition of fluorescein uptake over 20 mins.
Data set [9] deals with T3, Organic anion transporter 3. The description is as §1. Particulars: cho, 20 min, 500 µM.

Each structure is given as a SMILES string.

`CC1=C(C(=O)O)N2C(=O)[C@@H](NC(=O)[C@H](N)c3ccc(O)cc3)[C@H]2SC1` [CEFADROXIL]: the “inhibition (INH)” value in [1] and in data set [2] was “Not Active” in each case. Also, in data set [3], the inhibition at 20 min, 500 µM is 20%.

For the compound `CCCN(CCC)S(=O)(=O)c1ccc(C(=O)O)cc1` [PROBENECID], the “inhibition (INH)” value in data set [1] is reported as “Active”; in data set [4] it was “Active”; in data set [5] it was “Dose-dependent effect”; in data set [6] it was “Dose-dependent effect”; in [7], “Active”; in [2], “Not Active”. The “inhibition (INH)” value in data set [9] is on record as “Not Active”. Moreover, the IC50 in data set [8] stood at 3.02 µM.

As a reminder, the inhibition is the change of the read-out against control, counted positive when it falls. In general, IC50 refers to the midpoint of a concentration-inhibition curve.
